Test results taken from patent US20240409557A1, “5,6-FUSED AND 6,6-FUSED BICYCLIC ALCOHOLS AND ETHERS AND COMPOSITIONS FOR USE AS 15-PROSTAGLANDIN DEHYDROGENASE MODULATORS” (AMGEN INC., priority 2023, published 2024).
pIC50: −log10 of the molar value.

Legend:
[1] = molecular target: T1, human recombinant 15-PGDH (Homo sapiens, UniProt P15428); test: Recombinant 15-PGDH enzymatic inhibition assay (PGDH-Lumi, NADH signal); assay type: biochemical; details: recombinant 15-PGDH; 15 min pre-incubation, 60 min reaction with PGE2 and NAD+, NADH signal
T1 sequence (P15428 1-266): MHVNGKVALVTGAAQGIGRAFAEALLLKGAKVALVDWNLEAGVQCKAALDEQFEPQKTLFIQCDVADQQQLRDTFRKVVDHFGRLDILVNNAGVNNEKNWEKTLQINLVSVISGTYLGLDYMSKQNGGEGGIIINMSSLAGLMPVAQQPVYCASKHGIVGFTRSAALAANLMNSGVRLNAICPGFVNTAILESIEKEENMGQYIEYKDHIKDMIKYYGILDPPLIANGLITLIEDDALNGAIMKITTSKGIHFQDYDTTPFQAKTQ
How it was run: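 Recombinant 15-PGDH pre-incubated 15 min at room temperature with compound (22 concentrations, 2-fold dilutions) in 50 mM Tris pH 7.5, 0.01% Tween-20, […].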

15-PGDH in A549 cells = molecular target: T2, 15-PGDH in A549 cells (Homo sapiens, UniProt P15428); test: A549 cellular 15-PGDH assay (PGE2 accumulation, HTRF); assay type: cell-based; details: interleukin-stimulated, inhibitor 24 hrs, PGE2 by competitive HTRF, read-out: A549 Cell Assay IC50
T2 construct: endogenous in cells; host or cells: A549
T2 sequence (P15428 1-266): T1 sequence (P15428 1-266)
Excerpt: This assay was used for the quantification of IL-13 induced Native Prostaglandin E2 (PGE2) produced by A549 cells (epithelial cells from lung carcinoma) in cell culture supernatants. […] PGE2 was detected in a competitive HTRF assay by using anti PGE2 antibody labeled with Europium cryptate, and PGE2 labeled with […]. The PGE2 present in the sample competes with the binding between the two HTRF detection solutions (reagents) and thereby prevents FRET from occurring. The specific signal is inversely proportional to the PGE2 concentration. From this binding data, IC50 values were calculated.

Row | pIC50 [1] | pIC50 (15-PGDH in A549 cells) | SMILES
1 | 9.49 | 9.09 | Cn1cc2cc(-c3ncc4cc([C@]5(O)C[C@]6(CC6(F)F)C5)sc4n3)cnc2n1 (single isomer, unassigned) [Compound C114C, cis-1,1-difluoro-5-(2-(2-methyl-2H-pyrazolo[3,4-b]pyridin-5-yl)thieno[2,3-d]pyrimidin-6-yl)spiro[2.3]hexan-5-ol]
2 | 9.69 | 9.28 | Cn1cc2cc(-c3ccc4cc([C@H](O)C5CCC(F)(F)CC5)sc4n3)cnc2n1 (single isomer, unassigned) [Compound B31R]
3 | 9.22 | 8.61 | CC(C)n1cc2cc(-c3ccc4cc([C@H](O)C5CC(F)(F)C5)sc4n3)ccc2n1 (single isomer, unassigned) [Compound B56R]
4 | 7.05 | 6.99 | C[C@H](O)c1cc2c(-c3ccnn3C)cc(-c3cnc4nn(C)cc4c3)nc2s1 (single isomer, unassigned) [Compound B6S]
5 | 8.06 | 7.21 | O[C@@H](c1cc2ccc(-c3ccc4[nH]ncc4c3)nc2s1)C1CCOCC1 (single isomer, unassigned) [Compound B37R]
6 | 7.94 | 7.54 | O[C@]1(c2cc3cnc(-c4ccnnc4)nc3s2)C[C@H](C(F)(F)F)C1 [Compound C126C, cis-1-(2-(4-pyridazinyl)thieno[2,3-d]pyrimidin-6-yl)-3-(trifluoromethyl)cyclobutanol]
7 | 9.33 | 10.65 | CO[C@]1(C(F)(F)F)C[C@](O)(c2cc3ccc(-c4cnc5nn(C)cc5c4)nc3s2)C1 (single isomer, unassigned) [Compound C66T, trans-3-methoxy-1-(6-(2-methyl-2H-pyrazolo[3,4-b]pyridin-5-yl)thieno[2,3-b]pyridin-2-yl)-3-(trifluoromethyl)cyclobutanol]
8 | 9.40 | 9.22 | CCCC(O)c1cc2ccc(-c3cnc4nn(C)cc4c3)nc2s1 (stereo not drawn) [Compound B27, 1-(6-(2-methyl-2H-pyrazolo[3,4-b]pyridin-5-yl)thieno[2,3-b]pyridin-2-yl)-1-butanol]
9 | 9.31 | 9.00 | Cn1cc2cc(-c3ncc4cc(C5(O)CC6(CC6)C5)sc4n3)cnc2n1 [Compound C107, 5-(2-(2-methyl-2H-pyrazolo[3,4-b]pyridin-5-yl)thieno[2,3-d]pyrimidin-6-yl)spiro[2.3]hexan-5-ol]
10 | 8.48 | 8.55 | Cn1cc2cc(-c3ccc4cc([C@@H](O)[C@@H]5CC5(F)F)sc4n3)cnc2n1 (single isomer, unassigned) [Compound B85SS]
11 | 6.05 | 7.24 | Cn1cc2cc(-c3cnc4cc([C@@H](O)C5CC(F)(F)C5)sc4c3)cnc2n1 (single isomer, unassigned) [Compound B78S]
12 | 8.29 | 8.46 | Cn1cc2cc(-c3cnc4cc([C@@H](O)C5CC(F)(F)C5)sc4n3)cnc2n1 [Compound B92S, (S)-(3,3-difluorocyclobutyl)(3-(2-methyl-2H-pyrazolo[3,4-b]pyridin-5-yl)thieno[2,3-b]pyrazin-6-yl)methanol]
13 | 8.32 | 9.31 | Cn1cc2cc(-c3ccc4sc([C@H](O)C5CC(F)(F)C5)nc4n3)cnc2n1 (single isomer, unassigned) [Compound B74R]
14 | 9.33 | 8.97 | Cn1cc2cc(-c3ccc4cc(C(O)C5COC5)sc4n3)cnc2n1 (stereo not drawn) [Compound B28, (6-(2-methyl-2H-pyrazolo[3,4-b]pyridin-5-yl)thieno[2,3-b]pyridin-2-yl)(oxetan-3-yl)methanol]
15 | 9.41 | 9.01 | Cn1cc2cc(-c3ccc4nc([C@]5(O)C[C@]6(CC6(F)F)C5)sc4n3)cnc2n1 (single isomer, unassigned) [Compound C115C, cis-1,1-difluoro-5-(5-(2-methyl-2H-pyrazolo[3,4-b]pyridin-5-yl)[1,3]thiazolo[5,4-b]pyridin-2-yl)spiro[2.3]hexan-5-ol]
16 | 9.17 | 8.90 | Cn1cc2cc(-c3ccc4nc(C5(O)CC6(CC6)C5)sc4n3)cnc2n1 [Compound C108, 5-(5-(2-methyl-2H-pyrazolo[3,4-b]pyridin-5-yl)[1,3]thiazolo[5,4-b]pyridin-2-yl)spiro [2.3]hexan-5-ol]
17 | 8.00 | 8.54 | Cc1nc2ccc(-c3ccc4cc(C5(O)CC(F)(F)C5)sc4n3)cc2o1 [Compound C39, 3,3-difluoro-1-(6-(2-methyl-1,3-benzoxazol-6-yl)thieno[2,3-b]pyridin-2-yl)cyclobutanol]

Row | pIC50 [1] | pIC50 (15-PGDH in A549 cells) | SMILES
18 | 6.39 | 6.93 | CO[C@@H]1CC[C@]1(O)c1cc2ccc(-c3cnc4nn(C)cc4c3)nc2s1 (single isomer, unassigned) [Compound C70RR]
19 | 9.48 | 9.85 | Cn1cc2cc(-c3ccc4cc(C5(O)CC6(CCC6)C5)sc4n3)cnc2n1 [Compound C25, 2-(6-(2-methyl-2HI-pyrazolo[3,4-b]pyridin-5-yl)thieno[2,3-b]pyridin-2-yl)spiro[3.3]heptan-2-ol]
20 | 9.30 | 9.34 | Cn1cc2cc(-c3ccc4cc([C@]5(O)C[C@]6(CC6(F)F)C5)sc4n3)cnc2n1 (single isomer, unassigned) [Compound C88C, cis-1,1-difluoro-5-(6-(2-methyl-2H-pyrazolo[3,4-b]pyridin-5-yl)thieno[2,3-b]pyridin-2-yl)spiro[2.3]hexan-5-ol]
21 | 8.55 | 7.89 | Cn1cc2cc(-c3ccc4cc(C5(O)CCC(F)(F)CC5)sc4n3)cnc2n1 [Compound C15, 4,4-difluoro-1-(6-(2-methyl-2H-pyrazolo[3,4-b]pyridin-5-yl)thieno[2,3-b]pyridin-2-yl)cyclohexanol]
22 | 8.84 | 8.28 | Cc1cn2ncc(-c3ccc4cc([C@]5(O)C[C@@H](C(F)F)C5)sc4n3)cc2n1 [Compound C92C, cis-3-(difluoromethyl)-1-(6-(2-methylimidazo[1,2-b]pyridazin-7-yl)thieno[2,3-b]pyridin-2-yl)cyclobutanol]
23 | 8.67 | 8.23 | Cn1cc2cc(-c3ccc4nc([C@]5(O)C[C@](C)(C#N)C5)sc4n3)cnc2n1 (single isomer, unassigned) [Compound C91T, trans-3-hydroxy-1-methyl-3-(5-(2-methyl-2H-pyrazolo[3,4-b]pyridin-5-yl)[1,3]thiazolo[5,4-b]pyridin-2-yl)cyclobutanecarbonitrile]
24 | 9.19 | 8.57 | Cn1cc2cc(-c3ccc4nc([C@]5(O)C[C@@H](C(F)F)C5)sc4n3)cnc2n1 [Compound C81C, cis-3-(difluoromethyl)-1-(5-(2-methyl-2H-pyrazolo[3,4-b]pyridin-5-yl)[1,3]thiazolo[5,4-b]pyridin-2-yl)cyclobutanol]
25 | 9.42 | 10.04 | Cn1cc2cc(-c3ccc4cc(C(O)C5CCC5)sc4n3)cnc2n1 (stereo not drawn) [Compound B18, cyclobutyl(6-(2-methyl-2H-pyrazolo[3,4-b]pyridin-5-yl)thieno[2,3-b]pyridin-2-yl)methanol]
26 | 8.19 | 7.87 | CO[C@]1(C)C[C@](O)(c2cc3cnc(-c4cnc5c(c4)nnn5C)nc3s2)C1 (single isomer, unassigned) [Compound C121T, trans-3-methoxy-3-methyl-1-(2-(3-methyl-3H-[1,2,3]triazolo[4,5-b]pyridin-6-yl)thieno[2,3-d]pyrimidin-6-yl)cyclobutanol]
27 | 7.68 | 8.49 | C[C@H]1CC[C@]1(O)c1cc2ccc(-c3cnc4nn(C)cc4c3)nc2s1 (single isomer, unassigned) [Compound C64RS]
28 | 8.74 | 8.31 | C[C@@H](O)c1cc2c(-c3ccnn3C)cc(-c3cnc4nn(C)cc4c3)nc2s1 (single isomer, unassigned) [Compound B6R]
29 | 9.49 | 9.18 | Cn1cc2cc(-c3ccc4cc([C@H](O)[C@@H]5CCC5(F)F)sc4n3)cnc2n1 (single isomer, unassigned) [Compound B94RS]
30 | 8.39 | 7.93 | CCC[C@@H](O)c1cc2ccc(-c3cnc4nn(C)cc4c3)cc2s1 (single isomer, unassigned) [Compound B54R]
31 | 8.47 | 7.57 | C[C@@H](O)c1cc2c(C3CC3)cc(-c3cnc4nn(C)cc4c3)nc2s1 (single isomer, unassigned) [Compound B11R]
32 | 9.37 | 9.74 | Cn1cc2cc(-c3ccc4cc([C@]5(O)C[C@]6(CCO6)C5)sc4n3)cnc2n1 (single isomer, unassigned) [Compound C56C, cis-6-(6-(2-methyl-2H-pyrazolo[3,4-b]pyridin-5-yl)thieno[2,3-b]pyridin-2-yl)-1-oxaspiro[3.3]heptan-6-ol]
33 | 9.24 | 8.49 | CC[C@@H](O)c1cc2c(C3CC3)cc(-c3cnc4nn(C)cc4c3)nc2s1 (single isomer, unassigned) [Compound B13R]
